# System: Metabolism protein genes
# Test: DNA chip mRNA expression in yeast, metabolism protein genes (Table 7)
# Assay type: cell-based, Saccharomyces cerevisiae S288C
# In short: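 Measured as treated-to-untreated fluorescence ratio on a full-genome yeast DNA chip. Cells (S288C, YPD, 25° C.) were exposed in log phase for two hours to one chemical, dosed to curb growth without killing.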
structure (smiles),measurement,setting,value
"C=CC=O [(14), acrolein]",level of expressed mRNA in the presence/in the absence of chemical substance,yeast gene YKL060C,0.8
same,The level of expressed mRNA in the presence of chemical substance/The level of expressed mRNA in the absence of chemical substance,yeast gene YKL091C,1.5
same,The level of expressed mRNA in the presence of chemical substance/The level of expressed mRNA in the absence of chemical substance,yeast gene YKL104C,0.8
same,level of expressed mRNA in the presence/in the absence of chemical substance,yeast gene YKL148C,0.8
same,The level of expressed mRNA in the presence of chemical substance/The level of expressed mRNA in the absence of chemical substance,yeast gene YKL152C,1.0
same,level of expressed mRNA in the presence/in the absence of chemical substance,yeast gene YKL157W,0.8
same,The level of expressed mRNA in the presence of chemical substance/The level of expressed mRNA in the absence of chemical substance,yeast gene YKL213C,0.9
same,The level of expressed mRNA in the presence of chemical substance/The level of expressed mRNA in the absence of chemical substance,yeast gene YKL215C,1.0
same,level of expressed mRNA in the presence/in the absence of chemical substance,yeast gene YKR034W,1.1
same,The level of expressed mRNA in the presence of chemical substance/The level of expressed mRNA in the absence of chemical substance,yeast gene YKR039W,1.2
same,The level of expressed mRNA in the presence of chemical substance/The level of expressed mRNA in the absence of chemical substance,yeast gene YLL058W,0.8
same,level of expressed mRNA in the presence/in the absence of chemical substance,yeast gene YLR006C,1.0
same,level of expressed mRNA in the presence/in the absence of chemical substance,yeast gene YLR044C,0.5
same,level of expressed mRNA in the presence/in the absence of chemical substance,yeast gene YLR056W,0.7
same,level of expressed mRNA in the presence/in the absence of chemical substance,yeast gene YLR058C,0.7
same,level of expressed mRNA in the presence/in the absence of chemical substance,yeast gene YLR081W,1.0
same,level of expressed mRNA in the presence/in the absence of chemical substance,yeast gene YLR089C,0.7
same,The level of expressed mRNA in the presence of chemical substance/The level of expressed mRNA in the absence of chemical substance,yeast gene YLR180W,0.6
same,The level of expressed mRNA in the presence of chemical substance/The level of expressed mRNA in the absence of chemical substance,yeast gene YLR273C,1.3
same,level of expressed mRNA in the presence/in the absence of chemical substance,yeast gene YLR284C,1.3
same,The level of expressed mRNA in the presence of chemical substance/The level of expressed mRNA in the absence of chemical substance,yeast gene YLR299W,1.3
same,The level of expressed mRNA in the presence of chemical substance/The level of expressed mRNA in the absence of chemical substance,yeast gene YLR300W,0.6
same,The level of expressed mRNA in the presence of chemical substance/The level of expressed mRNA in the absence of chemical substance,yeast gene YLR303W,3.8
same,level of expressed mRNA in the presence/in the absence of chemical substance,yeast gene YLR304C,0.7
same,The level of expressed mRNA in the presence of chemical substance/The level of expressed mRNA in the absence of chemical substance,yeast gene YLR307W,1.9
same,The level of expressed mRNA in the presence of chemical substance/The level of expressed mRNA in the absence of chemical substance,yeast gene YLR348C,1.0
same,level of expressed mRNA in the presence/in the absence of chemical substance,yeast gene YLR354C,0.9
same,level of expressed mRNA in the presence/in the absence of chemical substance,yeast gene YLR372W,0.6
same,level of expressed mRNA in the presence/in the absence of chemical substance,yeast gene YML022W,0.9
same,The level of expressed mRNA in the presence of chemical substance/The level of expressed mRNA in the absence of chemical substance,yeast gene YML054C,2.1
same,The level of expressed mRNA in the presence of chemical substance/The level of expressed mRNA in the absence of chemical substance,yeast gene YML070W,1.3
same,The level of expressed mRNA in the presence of chemical substance/The level of expressed mRNA in the absence of chemical substance,yeast gene YML100W,1.2
same,The level of expressed mRNA in the presence of chemical substance/The level of expressed mRNA in the absence of chemical substance,yeast gene YMR008C,0.7
same,level of expressed mRNA in the presence/in the absence of chemical substance,yeast gene YMR011W,0.6
same,level of expressed mRNA in the presence/in the absence of chemical substance,yeast gene YMR015C,0.8
same,The level of expressed mRNA in the presence of chemical substance/The level of expressed mRNA in the absence of chemical substance,yeast gene YMR020W,1.1
same,The level of expressed mRNA in the presence of chemical substance/The level of expressed mRNA in the absence of chemical substance,yeast gene YMR081C,1.8
same,level of expressed mRNA in the presence/in the absence of chemical substance,yeast gene YMR083W,0.8
same,The level of expressed mRNA in the presence of chemical substance/The level of expressed mRNA in the absence of chemical substance,yeast gene YMR105C,1.0
same,The level of expressed mRNA in the presence of chemical substance/The level of expressed mRNA in the absence of chemical substance,yeast gene YMR189W,1.6
same,level of expressed mRNA in the presence/in the absence of chemical substance,yeast gene YMR205C,0.5
same,level of expressed mRNA in the presence/in the absence of chemical substance,yeast gene YMR261C,0.6
same,The level of expressed mRNA in the presence of chemical substance/The level of expressed mRNA in the absence of chemical substance,yeast gene YMR271C,1.8
same,The level of expressed mRNA in the presence of chemical substance/The level of expressed mRNA in the absence of chemical substance,yeast gene YMR296C,0.7
same,level of expressed mRNA in the presence/in the absence of chemical substance,yeast gene YMR323W,1.2
same,The level of expressed mRNA in the presence of chemical substance/The level of expressed mRNA in the absence of chemical substance,yeast gene YNL012W,1.0
same,level of expressed mRNA in the presence/in the absence of chemical substance,yeast gene YNL025C,1.2
same,The level of expressed mRNA in the presence of chemical substance/The level of expressed mRNA in the absence of chemical substance,yeast gene YNL037C,1.3
same,The level of expressed mRNA in the presence of chemical substance/The level of expressed mRNA in the absence of chemical substance,yeast gene YNL045W,0.8
same,The level of expressed mRNA in the presence of chemical substance/The level of expressed mRNA in the absence of chemical substance,yeast gene YNL104C,0.9
same,The level of expressed mRNA in the presence of chemical substance/The level of expressed mRNA in the absence of chemical substance,yeast gene YNL106C,1.1
same,The level of expressed mRNA in the presence of chemical substance/The level of expressed mRNA in the absence of chemical substance,yeast gene YNL169C,0.9
same,level of expressed mRNA in the presence/in the absence of chemical substance,yeast gene YNL192W,0.7
same,The level of expressed mRNA in the presence of chemical substance/The level of expressed mRNA in the absence of chemical substance,yeast gene YNL231C,0.9
same,The level of expressed mRNA in the presence of chemical substance/The level of expressed mRNA in the absence of chemical substance,yeast gene YNL322C,1.2
same,The level of expressed mRNA in the presence of chemical substance/The level of expressed mRNA in the absence of chemical substance,yeast gene YNL331C,7.5
same,The level of expressed mRNA in the presence of chemical substance/The level of expressed mRNA in the absence of chemical substance,yeast gene YNL332W,3.0
same,The level of expressed mRNA in the presence of chemical substance/The level of expressed mRNA in the absence of chemical substance,yeast gene YNR002C,1.2
same,The level of expressed mRNA in the presence of chemical substance/The level of expressed mRNA in the absence of chemical substance,yeast gene YNR019W,1.0
same,The level of expressed mRNA in the presence of chemical substance/The level of expressed mRNA in the absence of chemical substance,yeast gene YNR033W,0.9
same,The level of expressed mRNA in the presence of chemical substance/The level of expressed mRNA in the absence of chemical substance,yeast gene YNR059W,1.0
same,The level of expressed mRNA in the presence of chemical substance/The level of expressed mRNA in the absence of chemical substance,yeast gene YOL058W,1.5
same,level of expressed mRNA in the presence/in the absence of chemical substance,yeast gene YOL086C,0.6
same,level of expressed mRNA in the presence/in the absence of chemical substance,yeast gene YOL108C,0.9
same,level of expressed mRNA in the presence/in the absence of chemical substance,yeast gene YOL116W,0.9
same,The level of expressed mRNA in the presence of chemical substance/The level of expressed mRNA in the absence of chemical substance,yeast gene YOL126C,1.2
same,The level of expressed mRNA in the presence of chemical substance/The level of expressed mRNA in the absence of chemical substance,yeast gene YOL151W,4.0
same,The level of expressed mRNA in the presence of chemical substance/The level of expressed mRNA in the absence of chemical substance,yeast gene YOL153C,1.5
same,level of expressed mRNA in the presence/in the absence of chemical substance,yeast gene YOL156W,0.9
same,The level of expressed mRNA in the presence of chemical substance/The level of expressed mRNA in the absence of chemical substance,yeast gene YOL165C,9.1
same,level of expressed mRNA in the presence/in the absence of chemical substance,yeast gene YOR002W,0.9
same,level of expressed mRNA in the presence/in the absence of chemical substance,yeast gene YOR085W,0.7
same,The level of expressed mRNA in the presence of chemical substance/The level of expressed mRNA in the absence of chemical substance,yeast gene YOR099W,0.7
same,level of expressed mRNA in the presence/in the absence of chemical substance,yeast gene YOR103C,1.2
same,level of expressed mRNA in the presence/in the absence of chemical substance,yeast gene YOR108W,0.9
same,level of expressed mRNA in the presence/in the absence of chemical substance,yeast gene YOR128C,0.7
same,The level of expressed mRNA in the presence of chemical substance/The level of expressed mRNA in the absence of chemical substance,yeast gene YOR130C,1.3
same,level of expressed mRNA in the presence/in the absence of chemical substance,yeast gene YOR142W,0.8
same,level of expressed mRNA in the presence/in the absence of chemical substance,yeast gene YOR176W,0.8
same,level of expressed mRNA in the presence/in the absence of chemical substance,yeast gene YOR178C,1.0
same,level of expressed mRNA in the presence/in the absence of chemical substance,yeast gene YOR251C,1.1
same,The level of expressed mRNA in the presence of chemical substance/The level of expressed mRNA in the absence of chemical substance,yeast gene YOR336W,1.1
same,The level of expressed mRNA in the presence of chemical substance/The level of expressed mRNA in the absence of chemical substance,yeast gene YOR347C,0.9
same,level of expressed mRNA in the presence/in the absence of chemical substance,yeast gene YOR348C,1.2
same,The level of expressed mRNA in the presence of chemical substance/The level of expressed mRNA in the absence of chemical substance,yeast gene YPL017C,1.6
same,level of expressed mRNA in the presence/in the absence of chemical substance,yeast gene YPL028W,0.8
same,level of expressed mRNA in the presence/in the absence of chemical substance,yeast gene YPL057C,0.7
same,level of expressed mRNA in the presence/in the absence of chemical substance,yeast gene YPL135W,1.1
same,level of expressed mRNA in the presence/in the absence of chemical substance,yeast gene YPL148C,1.6
same,The level of expressed mRNA in the presence of chemical substance/The level of expressed mRNA in the absence of chemical substance,yeast gene YPR026W,1.5
same,level of expressed mRNA in the presence/in the absence of chemical substance,yeast gene YPR113W,1.3
same,level of expressed mRNA in the presence/in the absence of chemical substance,yeast gene YPR165W,1.0
same,The level of expressed mRNA in the presence of chemical substance/The level of expressed mRNA in the absence of chemical substance,yeast gene YPR167C,4.2
same,level of expressed mRNA in the presence/in the absence of chemical substance,yeast gene YPR183W,0.7

# From patent US8192962B2, “Processes for detecting toxic substances” (Daikin Industries, Ltd., priority 2001, dated 2012)
